The record followed here is ChEMBL document CHEMBL1250444, “Nitric oxide activates TRP channels by cysteine S-nitrosylation” (Nat Chem Biol, 2006).

Test [1] deals with T1, Short transient receptor potential channel 5 (Homo sapiens) (UniProt Q9UL62).
T1 sequence (whole entry): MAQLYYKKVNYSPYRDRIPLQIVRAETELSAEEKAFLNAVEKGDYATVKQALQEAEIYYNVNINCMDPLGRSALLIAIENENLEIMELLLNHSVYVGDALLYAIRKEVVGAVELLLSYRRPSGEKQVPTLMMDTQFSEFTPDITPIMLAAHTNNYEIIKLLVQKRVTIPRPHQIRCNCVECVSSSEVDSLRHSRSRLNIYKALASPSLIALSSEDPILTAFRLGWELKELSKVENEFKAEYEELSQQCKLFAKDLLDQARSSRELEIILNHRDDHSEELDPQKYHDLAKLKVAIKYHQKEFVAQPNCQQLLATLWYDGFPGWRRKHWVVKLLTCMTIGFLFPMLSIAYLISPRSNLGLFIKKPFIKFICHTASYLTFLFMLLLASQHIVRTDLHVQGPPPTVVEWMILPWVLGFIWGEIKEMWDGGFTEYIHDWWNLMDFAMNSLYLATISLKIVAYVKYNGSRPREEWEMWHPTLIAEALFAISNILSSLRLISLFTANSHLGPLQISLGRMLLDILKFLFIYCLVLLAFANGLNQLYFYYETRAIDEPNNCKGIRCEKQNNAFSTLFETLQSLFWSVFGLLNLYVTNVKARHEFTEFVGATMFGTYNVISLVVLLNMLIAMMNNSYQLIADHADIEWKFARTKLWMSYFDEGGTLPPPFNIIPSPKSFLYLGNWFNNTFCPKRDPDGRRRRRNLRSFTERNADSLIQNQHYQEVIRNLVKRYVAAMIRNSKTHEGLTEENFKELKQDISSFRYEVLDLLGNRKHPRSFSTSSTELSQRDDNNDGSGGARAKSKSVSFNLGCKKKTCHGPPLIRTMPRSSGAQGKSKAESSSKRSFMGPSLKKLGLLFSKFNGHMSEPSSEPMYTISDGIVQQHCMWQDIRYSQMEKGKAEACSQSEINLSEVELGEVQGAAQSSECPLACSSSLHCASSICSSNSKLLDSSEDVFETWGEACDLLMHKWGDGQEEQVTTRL
Put plainly: Induction of S-nitrosylation of TRPC5 in HEK cells assessed as increase in Ca2+ level from extracellular space at 1 mM in presence of dithiothreitol. The format is cell-based. Conditions: HEK293.

The subject of test [2] is T2, Short transient receptor potential channel 5 (Homo sapiens), Q9UL62 [C553S].
T2 sequence (whole entry): T1 sequence (whole entry) with C553S
The experiment in a line: Decrease in TRPC5 C553S mutant S-nitrosylation in HEK cells assessed as inhibition of incorporation of DTNB-2Bio at 300 uM relative to control. Format: cell-based. Conditions: HEK293.

Test [3] addresses T1, Short transient receptor potential channel 5 (Homo sapiens). The experiment in a line: Induction of S-nitrosylation of TRPC5 in HEK cells assessed as increase in Ca2+ level from extracellular space at 10 uM. Format: cell-based. Conditions: HEK293.
For test [4] the target is unchanged. Put plainly: Activation of TRPC5 expressed in BAEC expressing TRPC5 siRNA assessed as increase in Ca2+ level from extracellular space at 300 uM.
In test [5] the test system is HEK293. Put plainly: Activation of rat TRPV1 Cys621 mutant expressed in HEK cells assessed as increase in Ca2+ level from extracellular space at 0.1 to 1 mM. The format is cell-based.
For test [6], the target named is Transient receptor potential cation channel subfamily V member 4 (Homo sapiens) (UniProt Q9HBA0). Put plainly: Activation of TRPV4 in HEK cells assessed as increase in Ca2+ level from extracellular space at 300 uM. The format is cell-based. The following applies: HEK293.
The test system of test [7] is HEK293. The experiment in a line: Activation of rat TRPV1 Cys621 mutant expressed in HEK cells assessed as increase in Ca2+ level from extracellular space at 10 uM. Format: cell-based.
Test [8] concerns the target T1, Short transient receptor potential channel 5 (Homo sapiens). Put plainly: Induction of S-nitrosylation of TRPC5 in HEK cells assessed as increase in Ca2+ level from extracellular space at 30 uM in presence of dithiothreitol. Format: cell-based. The following applies: HEK293.
Test [9] has the same target. Put plainly: Induction of S-nitrosylation of TRPC5 in HEK cells assessed as increase in Ca2+ level from extracellular space at 30 uM. Format: cell-based. Conditions: HEK293.
Test [10] has as its target Transient receptor potential cation channel subfamily V member 1 (Rattus norvegicus) (UniProt O35433). The experiment in a line: Activation of rat TRPV1 expressed in HEK cells assessed as increase in Ca2+ level from extracellular space at 10 uM. The format is cell-based. The following applies: HEK293.
Test [11] deals with HEK293. The experiment in a line: Activation of rat TRPV1 Cys616 mutant expressed in HEK cells assessed as increase in Ca2+ level from extracellular space at 10 uM. Format: cell-based.
Test [12] concerns the target Transient receptor potential cation channel subfamily M member 2 (Homo sapiens) (UniProt O94759). The experiment in a line: Induction of TRPM2 S-nitrosylation in HEK cells assessed as increase in Ca2+ level from extracellular space at 30 uM. Conditions: HEK293. The format is cell-based.

Positions count from the first letter of the chain named. Activity calls are given as the source filed them. No cut-off for these calls is given here.

Chain of Transient receptor potential cation channel subfamily M member 2 (Homo sapiens) (O94759 whole entry): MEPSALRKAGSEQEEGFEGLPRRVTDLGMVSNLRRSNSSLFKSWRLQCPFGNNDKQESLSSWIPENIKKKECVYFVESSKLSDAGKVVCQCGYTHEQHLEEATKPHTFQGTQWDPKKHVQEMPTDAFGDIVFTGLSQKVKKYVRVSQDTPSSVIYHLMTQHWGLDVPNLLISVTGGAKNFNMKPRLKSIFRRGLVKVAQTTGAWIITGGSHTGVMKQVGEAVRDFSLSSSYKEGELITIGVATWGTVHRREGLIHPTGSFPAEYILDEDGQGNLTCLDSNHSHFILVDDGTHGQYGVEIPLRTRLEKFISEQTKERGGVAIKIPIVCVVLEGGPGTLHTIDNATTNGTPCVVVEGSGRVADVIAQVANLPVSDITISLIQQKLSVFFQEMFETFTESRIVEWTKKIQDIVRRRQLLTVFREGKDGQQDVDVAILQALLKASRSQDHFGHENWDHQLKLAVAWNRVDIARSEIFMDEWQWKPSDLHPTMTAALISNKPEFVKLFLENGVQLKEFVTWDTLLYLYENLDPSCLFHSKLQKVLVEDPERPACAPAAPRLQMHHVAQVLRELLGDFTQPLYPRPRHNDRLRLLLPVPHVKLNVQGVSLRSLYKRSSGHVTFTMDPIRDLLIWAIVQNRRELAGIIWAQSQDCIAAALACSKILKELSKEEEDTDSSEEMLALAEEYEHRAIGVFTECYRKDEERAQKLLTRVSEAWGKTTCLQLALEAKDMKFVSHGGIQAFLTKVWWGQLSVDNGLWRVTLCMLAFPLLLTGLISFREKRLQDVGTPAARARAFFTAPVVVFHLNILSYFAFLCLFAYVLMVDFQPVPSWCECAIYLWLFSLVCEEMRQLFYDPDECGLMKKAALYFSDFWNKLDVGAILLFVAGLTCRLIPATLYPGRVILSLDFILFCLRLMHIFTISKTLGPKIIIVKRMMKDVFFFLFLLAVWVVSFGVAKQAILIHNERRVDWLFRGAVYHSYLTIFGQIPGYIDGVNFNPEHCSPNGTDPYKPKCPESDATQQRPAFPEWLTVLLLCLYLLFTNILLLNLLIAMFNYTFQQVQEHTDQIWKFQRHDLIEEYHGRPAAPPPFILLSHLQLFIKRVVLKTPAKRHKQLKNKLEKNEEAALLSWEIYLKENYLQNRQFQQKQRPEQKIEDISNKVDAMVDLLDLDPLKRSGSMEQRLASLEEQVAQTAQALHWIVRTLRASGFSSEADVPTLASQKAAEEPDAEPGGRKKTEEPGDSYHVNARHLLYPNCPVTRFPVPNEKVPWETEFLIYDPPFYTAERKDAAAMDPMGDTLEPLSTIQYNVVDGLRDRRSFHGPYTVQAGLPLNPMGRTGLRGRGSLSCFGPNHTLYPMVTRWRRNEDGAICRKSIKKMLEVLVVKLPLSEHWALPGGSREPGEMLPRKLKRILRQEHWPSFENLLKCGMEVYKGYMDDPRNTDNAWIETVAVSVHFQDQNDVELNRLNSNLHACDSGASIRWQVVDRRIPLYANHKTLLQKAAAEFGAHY
Chain of Transient receptor potential cation channel subfamily V member 4 (Homo sapiens) (Q9HBA0 whole entry): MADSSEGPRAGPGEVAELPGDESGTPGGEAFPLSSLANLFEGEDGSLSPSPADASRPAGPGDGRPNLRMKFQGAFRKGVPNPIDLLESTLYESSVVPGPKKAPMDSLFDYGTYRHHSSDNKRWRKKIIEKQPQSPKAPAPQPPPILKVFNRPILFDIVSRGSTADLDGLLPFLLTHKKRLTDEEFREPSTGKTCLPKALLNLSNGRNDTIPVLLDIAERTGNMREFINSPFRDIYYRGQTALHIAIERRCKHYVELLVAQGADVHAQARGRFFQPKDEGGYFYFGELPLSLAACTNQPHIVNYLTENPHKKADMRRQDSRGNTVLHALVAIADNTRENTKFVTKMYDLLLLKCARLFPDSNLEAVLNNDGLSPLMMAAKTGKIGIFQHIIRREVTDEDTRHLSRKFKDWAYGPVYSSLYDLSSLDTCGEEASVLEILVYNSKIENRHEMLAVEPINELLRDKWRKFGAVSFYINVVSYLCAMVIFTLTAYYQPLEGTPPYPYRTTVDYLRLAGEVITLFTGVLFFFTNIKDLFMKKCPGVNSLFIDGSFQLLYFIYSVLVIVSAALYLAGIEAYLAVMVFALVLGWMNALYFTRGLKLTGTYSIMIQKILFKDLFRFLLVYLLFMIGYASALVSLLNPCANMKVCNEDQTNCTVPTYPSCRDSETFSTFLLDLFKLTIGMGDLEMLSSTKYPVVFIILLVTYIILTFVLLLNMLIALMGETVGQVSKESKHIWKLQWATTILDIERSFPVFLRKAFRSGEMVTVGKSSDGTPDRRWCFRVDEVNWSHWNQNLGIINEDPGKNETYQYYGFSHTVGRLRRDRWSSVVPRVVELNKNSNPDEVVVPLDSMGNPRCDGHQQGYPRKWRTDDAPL
Chain of Transient receptor potential cation channel subfamily V member 1 (Rattus norvegicus) (O35433 whole entry): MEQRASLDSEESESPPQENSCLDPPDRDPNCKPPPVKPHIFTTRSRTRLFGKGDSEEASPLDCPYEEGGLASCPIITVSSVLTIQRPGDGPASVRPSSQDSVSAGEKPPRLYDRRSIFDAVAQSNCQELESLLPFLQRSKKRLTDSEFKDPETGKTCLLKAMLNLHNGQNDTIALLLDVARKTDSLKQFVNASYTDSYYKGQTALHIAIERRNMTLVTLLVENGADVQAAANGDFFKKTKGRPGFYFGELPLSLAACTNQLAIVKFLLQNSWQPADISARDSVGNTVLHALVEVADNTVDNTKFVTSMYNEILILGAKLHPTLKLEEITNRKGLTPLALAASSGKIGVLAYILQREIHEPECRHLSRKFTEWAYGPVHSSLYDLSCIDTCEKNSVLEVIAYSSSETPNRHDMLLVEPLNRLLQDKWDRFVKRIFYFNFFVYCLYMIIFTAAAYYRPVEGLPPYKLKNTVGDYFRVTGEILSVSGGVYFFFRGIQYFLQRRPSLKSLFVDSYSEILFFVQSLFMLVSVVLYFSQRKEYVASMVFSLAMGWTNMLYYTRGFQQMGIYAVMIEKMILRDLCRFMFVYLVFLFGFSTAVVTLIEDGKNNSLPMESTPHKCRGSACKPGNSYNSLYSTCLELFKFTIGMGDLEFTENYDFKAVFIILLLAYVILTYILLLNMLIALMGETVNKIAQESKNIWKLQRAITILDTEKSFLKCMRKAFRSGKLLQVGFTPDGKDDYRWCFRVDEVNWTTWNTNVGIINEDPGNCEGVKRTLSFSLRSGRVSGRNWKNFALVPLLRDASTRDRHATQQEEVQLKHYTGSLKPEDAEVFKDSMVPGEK

`CC(=O)N[C@@H](C(=O)O)C(C)(C)SN=O` (racemic): the outcome (in test [1]; in test [4]; with HEK293 [5]) was inactive. Further, the result in test [2], in test [3] and in [6] was Active.

With `O=[N+]([O-])c1ccc(SSc2ccc([N+](=O)[O-])cn2)nc1`, the outcome (in the test on HEK293 [7]; in [8]; in the test on HEK293 [11]; in [12]) was inactive. Further, the outcome in test [9] and in test [10] was Active.
